3 compounds from patent publication US20110229892A1, “METHOD FOR PREDICTING A PATIENT'S RESPONSIVENESS TO ANTI-FOLATE THERAPY” (priority 2008, published 2011) can be followed below.

The subject of one data set is CCRF-CEM WT cells. Put plainly: Antifolate growth inhibition assay (XTT), parental cells. In kind it is cell-based. Conditions: Homo sapiens, 72 h, read-out: IC50 growth inhibition. The method, then:
(§1) Tissue Culture: The human T-cell lymphocytic leukemia lines CCRF-CEM and Molt-4 as well as their antifolate-resistant sublines CEM-MTX^R5P, CEM-MTX^R10, CEM-7OH MTX and Molt-4-7OH MTX were maintained in RPMI-1640 medium (GIBCO) containing 2.3 μM folic acid supplemented with 10% fetal bovine serum, 2 mM glutamine, 100 units/ml penicillin G and 100 μg/ml streptomycin sulfate (Biological Industries, Beth-Haemek, Israel). The MTX-resistant sublines MTX^R5P and MTX^R10 were established by exposure of parental CCRF-CEM cells to 6 cycles each of 24 hr pulse of 5 or 10 μM MTX, respectively (Sigma) as follows: after an initial 24 hr pulse exposure of parental CCRF-CEM cells to 5 or 10 μM MTX at 37° C., cells were washed once with drug-free growth medium, adjusted to 3×10^5 cells/ml and allowed to grow for 1-2 weeks. Thereafter, a maintenance treatment of 24 hr pulses of MTX was performed once a month. CEM-7OH MTX and Molt-4-7OH MTX were established and maintained as previously described [Fotoohi K, et al., Blood. 2004; 104:4194-4201].
(§2) Antifolate growth inhibition assay: Parental cells and their antifolate-resistant sublines as well as FPGS-transfected cells were first grown in antifolate-free growth medium for 5-7 cell doublings. Thereafter, cells were seeded in 96-well plates (3×10^4/well) in growth medium (100 μl/well) containing various concentrations of the different antifolates (e.g. MTX, ZD1694 and ZD9331). After 3 days of incubation at 37° C., viable cell numbers were determined using the Cell Proliferation Kit (XTT) (Biological Industries). Percent inhibition of cell growth was calculated relative to untreated controls. Results presented are means of at least three independent experiments.

In the next data set the target is T1, RFC (SLC19A1) (Homo sapiens, UniProt P41440).
T1 construct: endogenous in cells; host or cells: CCRF-CEM parental cells and antifolate-resistant sublines (MTX^R5P, CEM/MTX^R10)
T1 sequence (P41440 1-591): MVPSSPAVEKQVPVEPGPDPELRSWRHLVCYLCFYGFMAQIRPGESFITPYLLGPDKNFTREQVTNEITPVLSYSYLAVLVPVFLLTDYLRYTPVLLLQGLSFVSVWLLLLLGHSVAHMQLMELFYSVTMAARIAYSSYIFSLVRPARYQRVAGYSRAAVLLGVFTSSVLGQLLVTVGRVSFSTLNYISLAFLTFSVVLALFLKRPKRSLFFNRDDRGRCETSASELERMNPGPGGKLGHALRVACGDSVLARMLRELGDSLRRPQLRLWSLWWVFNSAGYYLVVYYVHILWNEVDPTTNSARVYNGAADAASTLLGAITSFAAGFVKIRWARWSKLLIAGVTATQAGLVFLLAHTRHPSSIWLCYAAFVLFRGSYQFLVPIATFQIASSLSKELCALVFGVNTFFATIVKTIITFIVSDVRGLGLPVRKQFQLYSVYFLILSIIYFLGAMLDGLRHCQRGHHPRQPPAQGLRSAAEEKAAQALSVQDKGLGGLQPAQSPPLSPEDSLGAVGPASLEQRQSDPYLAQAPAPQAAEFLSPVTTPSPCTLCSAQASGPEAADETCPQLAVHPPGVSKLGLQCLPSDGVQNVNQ
Put plainly: [^3H]MTX transport assay. In kind it is cell-based. Conditions: 2 μM [3H]MTX, 3 min, 37° C. The method, then:
[^3H]MTX transport assay: [^3H]MTX influx rates were determined as previously described [Jansen Get al., J Biol Chem. 1990; 265:18272-18277]. Briefly, cells (2×10^7) were washed with ice-cold HBS (20 mM HEPES, 140 mM NaCl, 5 mM KCl, 2 mM MgCl2, and 5 mM glucose, at pH 7.4) and incubated at 37° C. for 3 min in HBS containing 2 μM [3′,5′,7-^3H]-Methotrexate (0.555 TBq/mmol; […]; Moravek Biochemicals, Brea, Calif.). Transport controls contained a 500-fold excess (1 mM) of unlabeled MTX. Transport was stopped by the addition of 10 ml of ice-cold HBS. Then, the cell suspension was centrifuged, washed with ice-cold HBS and suspended in water for scintillation counting.

The next data set concerns CEM-MTX^R10 cells. In words: Antifolate growth inhibition assay (XTT), MTX-resistant subline. In kind it is cell-based. The conditions noted are these: Homo sapiens, 72 h, read-out: IC50 growth inhibition. The method, then: as §1, §2
Another data set concerns CEM-MTX^R5P cells. Described as above. In kind it is cell-based, human. Conditions: for IC50: Homo sapiens, 72 h, read-out: IC50 growth inhibition. The method, then: as §1, §2
Data set [1] concerns MTX^R10 cells overexpressing normal FPGS (pcDNA3/hFPGS transfectant). In words: Antifolate cytotoxicity in FPGS-transfected cells. In kind it is cell-based, human. Conditions: MTX^R10 cells transfected with normal FPGS, compared with parental cells. The method, then: as §2
Expression Vectors: pcDNA3/hFPGS harboring the full-length human FPGS cDNA was provided. […]
Stable Transfections with hFPGS Expression Constructs: Exponentially growing cells (i.e. CCRF-CEM and)CEM-MTX^R10) were harvested by centrifugation and stably transfected by electroporation (1000 μF, 234V) with 10 μg of the vectors pcDNA3.1, pIRES2-EGFP, pcDNA3/hFPGS or pIRES/FPGSΔexon10. […] Stable transfectants obtained after 4 weeks of G-418 selection were analyzed for FPGS mRNA levels by Northern blots as detailed below and used for further analyses.

Setting [2] is: CCRF-CEM WT, 3 days incubation, XTT.
The mark [3] stands for this setting: CEM-MTX^R10, 3 days incubation, XTT.
The mark [4] stands for this setting: CEM-MTX^R5P, 3 days incubation, XTT.
Where [5] appears, read: MTX^R5P cells vs parental cells.

Read-outs that look alike come from different tables or passages of the source.

For the compound `CN(Cc1cnc2nc(N)nc(N)c2n1)c1ccc(C(=O)N[C@@H](CCC(=O)O)C(=O)O)cc1` [MTX, methotrexate], the IC50 in the data set on CCRF-CEM WT cells (setting [2]) worked out at 25.7 ± 2.1 nM; in the data set on CEM-MTX^R10 cells (setting [3]) it was 28.2 ± 2.9 nM; with CEM-MTX^R5P cells (setting [4]), 23.1 ± 2 nM. For the same compound, the “MTX Influx” value at RFC (SLC19A1) (CCRF-CEM WT (parental reference)) is listed as 100%; at RFC (SLC19A1) (CEM-MTX^R5P, relative to parental cells) it was 50 ± 5%; on RFC (SLC19A1) (CEM-MTX^R5P, relative to parental cells, listed as [^3H]MTX), 50%; on RFC (SLC19A1) (CEM-MTX^R10, relative to parental cells), 91 + 6%.
Take `Cc1nc2ccc(CN(C)c3ccc(C(=O)N[C@@H](CCC(=O)O)C(=O)O)s3)cc2c(=O)[nH]1` [ZD1964, raltitrexed]: the IC50 in the data set on CCRF-CEM WT cells (setting [2]) was 6.06 ± 0.42 nM; in the data set with CEM-MTX^R10 cells (setting [3]), 110 ± 9.8 nM; in the data set with CEM-MTX^R5P cells (setting [4]), > 300000 nM. Besides, the “sensitivity after ectopic overexpression of normal FPGS” value in data set [1] is recorded as “fully restored parental cell sensitivity”. In addition, the “resistance relative to parental CCRF-CEM cells” value in the data set with CEM-MTX^R5P cells (setting [5]) is reported as 50,000 fold.
On to `C#CCN(Cc1cc2c(=O)[nH]c(C)nc2cc1C)c1ccc(C(=O)N[C@@H](CCc2nnn[nH]2)C(=O)O)c(F)c1` [ZD9331, plevitrexed], for which the IC50 in the data set on CCRF-CEM WT cells (CCRF-CEM) came to 28.6 ± 2.3 nM; with CEM-MTX^R10 cells, 40.8 ± 4.1 nM; with CEM-MTX^R5P cells it was 13.9 ± 1.7 nM. Moreover, in the data set with CEM-MTX^R5P cells (setting [5]), the “increased sensitivity relative to parental cells” value is recorded as 2 fold.

The IC50 is the concentration needed to halve the response being measured.
